Assays:
T98G and GBM43 cells = assay: Clonogenic survival assay, PPF with TMZ or radiation; assay type: cell-based, human
Description: (§1) FIGS. 26A, 26B, and 26C depict that PPF sensitizes GBM cells to TMZ and radiotherapy. FIG. 26A—A clonogenic assay was used to assess T98G and GBM43 cells survival after TMZ and radiation treatment. Cells were pre-treated with 5 μM PPF for 24 hours, and then either treated with 250 μM TMZ for 24 hours or exposed to 2 Gy radiation. Graph depicts the surviving fraction in the treated cells compared to vehicle (VC) treated or non-treated (NT) cells, **p<0.01. FIG. 26B—T98G glioma cells were treated with vehicle, PPF (5 μM) TMZ (250 μM) and PPF in combination with TMZ. TMZ-induced apoptosis was assayed by immunoblot analysis of cell lysates with an antibody to cleaved PARP. Immunoblotting for α-Tubulin was included as a loading control. FIG. 26C—T98G, GBM10, and GBM43 cells were treated with PPF ([…], and then immunoblotted to assess the activation of AKT and NF-κB. Immunoblotting for β-Actin is included as a loading control.
(§2) Referring now to FIGS. 26A, 26B, and 26C: Knockdown of TROY expression with shRNA decreases TMZ resistance in GBM cells in vitro (See Reference 42). […] Following combination therapy, cells were trypsinized, counted, and plated in a 6-well culture dish at densities of 100, 250, and 500 cells per well in triplicate. Cells were incubated for 12 days then fixed, stained with 0.5% crystal violet solution, and counted manually by blinded observers. […]

cleaved PARP = assay: Immunoblot for cleaved PARP (TMZ-induced apoptosis); assay type: cell-based, human; settings: T98G cells, PPF (5 μM) in combination with TMZ (250 μM), compared to TMZ alone
Description: as §1, §2

[1] = system: T98G, GBM10, and GBM43 glioma cells; assay: Matrigel invasion assay; assay type: cell-based, human; settings: 5 μM PPF, 24 hours, 10% FBS
Description: (§3) FIGS. 27A and 27B depict that PPF suppresses GBM cell invasion and Rac1 activation. FIG. 27A—T98G, GBM10, and GBM43 glioma cells were treated with 5 μM PPF and invasion was assayed over 24 hours utilizing a Matrigel® invasion assay, *p<0.05. FIG. 27B—T98G glioma cells were serum starved, pre-incubated with 5 μM PPF or vehicle for 1 hour, and then stimulated with 10% FBS for 2-10 mins. Cell lysates were harvested and equal concentrations of protein were assessed for Rac1 activation.
(§4) Referring now to FIGS. 27A and 27B: The inventors next examined whether PPF inhibited TROY dependent glioma cell invasion. […] Briefly, 5.0×10^5 cells glioma cells were seeded in 100-mm diameter culture dishes and incubated overnight at 37° C. Subsequently, cells were serum starved for 16 hours at 37° C. Cells were then harvested, re-suspended in growth factor reduced Matrigel® (Becton Dickinson) (1.0×10^5 cells/50 μL), added in triplicates to collagen-coated transwell chambers, and allowed to invade through Matrigel® in presence of 10% FBS and/or 5 μM PPF. After incubation for 24 hours at 37° C. non-invaded cells were scrapped off the upper side of the membrane and cells invaded to the other side of the membrane were fixed with 4% paraformaldehyde (PFA) (Affymetrix) and stained with DAPI (Invitrogen). Nuclei of invaded cells were counted in five high power fields (HPF) with a 20× objective.

Rac1 = Rac1 activation assay after PPF; assay type: cell-based, human; settings: T98G cells, 5 μM PPF 1 hour, then 10% FBS
Description: as §3, §4

T98G cells = assay: EGF-stimulated transwell migration assay; assay type: cell-based, human; settings: serum starved T98G, PPF one hour prior to EGF (10 ng/mL), 24 hours
Description: FIG. 33 depicts the impact of PPF treatment on EGF-stimulated glioma cell migration. Serum starved T98G cells were treated with PPF at various concentrations one hour prior to EGF addition (10 ng/mL). Cell migration was assessed using the transwell migration assay after 24 hours. *p<0.001; **p<0.01.
Thus, the capacity of TROY to stimulate glioma cell invasion and increase TMZ and IR resistance could rely on the formation of a TROY-EGFR signaling complex. This association could activate, or potentiate, shared signaling pathways survival pathways as well as activate distinct TROY signaling pathways that mediate TROY receptor specific functional activities. Therefore, therapeutic approaches targeting TROY and/or both receptors may yield increased therapeutic benefit.

CNS-1 rat model = settings: systemic PPF treatment; cited from earlier work
[2] = clinical trials for Alzheimer's disease and vascular dementia; cited from earlier work

Question: For `CCCn1cnc2c1c(=O)n(CCCCC(C)=O)c(=O)n2C` [PPF, 3-methyl-1-(5-oxohexyl)-7-propyl-3,7-dihydro-1H-purine-2,6-dione], which surviving fraction (T98G and GBM43 cells; 5 μM PPF 24 hours then 250 μM TMZ 24 hours, compared to TMZ alone, T98G and GBM43) is on record?
Answer: significantly decreased the surviving fraction

Question: And the surviving fraction (T98G and GBM43 cells; 5 μM PPF 24 hours then 2Gy radiation, compared to 2Gy radiation alone)?
Answer: significantly decreased the surviving fraction

Question: What about the “cleaved PARP” value (cleaved PARP) of the same compound?
Answer: increase in cleaved PARP

Question: And the glioma cell invasion [1]?
Answer: significantly inhibited glioma cell invasion

Question: And the Rac1 activation (Rac1)?
Answer: inhibited Rac1 activation

Question: And the “EGF-stimulated glioma cell migration” value (T98G cells)?
Answer: reduced EGF-stimulated glioma cell migration

Question: What about the tumor growth (CNS-1 rat model) of the same compound?
Answer: decreased tumor growth

Question: And the side effect profile [2]?
Answer: minimal side effect profile
